From ChEMBL document CHEMBL4842375, “Discovery of a Potent Glutathione Peroxidase 4 Inhibitor as a Selective Ferroptosis Inducer” (J Med Chem, 2021) come the findings set out here.

In assay [1] the test system is MCF7. In words: Cytotoxicity against human MCF7 cells assessed as reduction in cell viability incubated for 48 hrs by MTT assay. The settings on record: MCF7, 48 h. The assay is classed as functional, cell-based. For orientation: Formazan colour is commonly taken as a measure of viable cells.
The test system of assay [2] is 4T1. In words: Cytotoxicity against mouse 4T1 cells assessed as reduction in cell viability incubated for 48 hrs by MTT assay. The assay is classed as functional, cell-based. To be noted: 4T1, 48 h.
In assay [3] the test system is HT-1080. The assay can be described thus: Cytotoxicity against human HT-1080 cells assessed as reduction in cell viability incubated for 48 hrs by MTT assay. The assay is classed as functional, cell-based. The settings on record: HT-1080, 48 h.
In assay [4] the test system is HT-1080. In words: Cytotoxicity against human HT-1080 cells assessed as reduction in cell viability incubated for 48 hrs in presence of Fer-1 by MTT assay. The assay is classed as functional, cell-based. The settings on record: HT-1080, 48 h.
Assay [5] in a line: Selectivity index, ratio of IC50 for cytotoxicity against human HT-1080 cells in presence of Fer-1 to IC50 for cytotoxicity against human HT-1080 cells. The assay is classed as functional.
The target of assay [6] is T1, Phospholipid hydroperoxide glutathione peroxidase GPX4 (Homo sapiens) (UniProt P36969).
T1 sequence (whole entry): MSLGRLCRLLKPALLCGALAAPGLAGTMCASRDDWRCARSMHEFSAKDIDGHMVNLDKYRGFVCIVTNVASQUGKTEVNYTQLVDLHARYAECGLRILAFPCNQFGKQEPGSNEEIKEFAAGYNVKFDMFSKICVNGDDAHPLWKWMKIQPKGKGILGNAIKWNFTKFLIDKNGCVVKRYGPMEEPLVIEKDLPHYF
The assay can be described thus: Inhibition of GPX4 in mouse 4T1 cells assessed as decrease in intracellular GPX4 activity at 5 uM after 6 hrs. The assay is classed as cell-based.

Assay [7] relates to 4T1. The assay can be described thus: Effect on intracellular GSH level in mouse 4T1 cells assessed as reduction in GSH level. The assay is classed as functional, cell-based.

Molecules are shown by their SMILES. Activity calls are given as the source filed them. The calls are words filed in the database; no cut-off is given here.

Regarding `O=C(NCCc1ccccc1)C(c1c[nH]c2ccccc12)N(C(=O)CCl)c1ccc(Br)cc1` (stereo not drawn), the IC50 in assay [1] is 10.9 µM; in assay [2], 6.47 µM.
In the case of `O=C(NCCc1ccccc1)C(c1c[nH]c2ccccc12)N(C(=O)CCl)c1ccc(-c2nnco2)cc1` (stereo not drawn), the IC50 in assay [1] is 5.92 µM; in assay [3], 0.35 µM; in assay [2] it was 0.89 µM; in assay [4] it was 4.52 µM. Further, the “Ratio IC50” value in assay [5] came out at 12.9.
In the case of `CCOC(=O)c1ccc(N(C(=O)CCl)C(C(=O)NCCc2ccccc2)c2cccc3[nH]ccc23)cc1` (stereo not drawn), the IC50 in assay [1] amounted to 14.8 µM; in assay [3] it was 0.4 µM; in assay [2] it was 2.96 µM; in assay [4] it was 1.3 µM. In assay [5], the “Ratio IC50” value came to 3.2.
For `C=CCNC(=O)C(c1c[nH]c2ccccc12)N(C(=O)CCl)c1ccc(C(=O)OCC)cc1` (stereo not drawn), in that order: 12.6 µM, 0.74 µM, 2.15 µM, 4.57 µM and 6.2.
For `CCOC(=O)c1ccc(N(C(=O)CCl)C(C(=O)NCCc2ccc(Cl)cc2)c2c[nH]c3ccccc23)cc1` (stereo not drawn), the IC50 stood at 16.3 µM in assay [1], 0.43 µM in assay [3], 2.07 µM in assay [2] and 4.31 µM in assay [4]. Further, the “Ratio IC50” value in assay [5] amounted to 10.
For `CCOC(=O)c1ccc(N(C(=O)CCl)C(C(=O)NC(C)(C)C)c2c[nH]c3ccccc23)cc1` (stereo not drawn), in that order: 12.1 µM, 0.43 µM, 3.22 µM, 4.2 µM and 9.8.
As for `COC(=O)c1ccc([C@H]2c3[nH]c4ccccc4c3C[C@H](C(=O)OC)N2C(=O)CCl)cc1`, the IC50 in assay [1] was 13.6 µM; in assay [3], 1.2 µM; in assay [2], 3.69 µM; in assay [4], 3.7 µM. Moreover, in assay [6], the inhibition worked out at 11.8%. In assay [5], the “Ratio IC50” value is reported as 3.1. For the same molecule, the outcome in assay [7] was inactive.
In the case of `CCOC(=O)c1ccc(CN(C(=O)CCl)C(C(=O)NC(C)(C)C)c2c[nH]c3ccccc23)cc1` (stereo not drawn), the half-maximal inhibitory concentration (IC50) in assay [1] was determined as 15.5 µM; in assay [3] it was 16 µM; in assay [2], 9.43 µM; in assay [4], 16 µM. Besides, the “Ratio IC50” value in assay [5] amounted to 1.
With `Cc1noc(-c2ccc(N(C(=O)CCl)C(C(=O)NCCc3ccccc3)c3csc4ccccc34)cc2)n1` (stereo not drawn), the IC50 in assay [1] is 8.28 µM; in assay [3] it was 0.21 µM; in assay [2] it was 0.75 µM; in assay [4] it was 3.5 µM. Moreover, in assay [5], the “Ratio IC50” value was 16.7.
For `CCOC(=O)c1ccc(N(C(=O)CCl)C(C(=O)NCCc2ccccc2Cl)c2c[nH]c3ccccc23)cc1` (stereo not drawn), in that order: 13.4 µM, 0.89 µM, 2.31 µM, 3.21 µM and 3.6.
In the case of `O=C(NCCc1ccccc1)C(c1c[nH]c2ccccc12)N(C(=O)CCl)c1ccc(F)cc1` (stereo not drawn), the IC50 in assay [1] turned out to be 13.5 µM; in assay [2], 9.21 µM.
For `CCOC(=O)c1ccc(N(C(=O)CCl)C(C(=O)NCCc2ccccc2)c2c[nH]c3ncccc23)cc1` (stereo not drawn), the IC50 was 6.85 µM in assay [1], 3.2 µM in assay [3], 9.3 µM in assay [2] and 5.3 µM in assay [4]. In addition, in assay [5], the “Ratio IC50” value is listed as 1.7.
For `CCOC(=O)c1ccc(N(C(=O)CCl)C(C(=O)NCCc2ccccc2)c2c[nH]c3ccccc23)cc1` (stereo not drawn), in that order: 8.71 µM, 0.3 µM, 1.93 µM, 4.43 µM and 14.7.
For `CCOC(=O)c1ccc(CN(C(=O)CCl)C(C(=O)NCc2ccccc2)c2c[nH]c3ccccc23)cc1` (stereo not drawn), in that order: 20.4 µM, 3 µM, 9.91 µM, 4.9 µM and 1.63.
For `O=C(NCCc1ccccc1)C(c1c[nH]c2ccccc12)N(C(=O)CCl)c1ccc(-c2cnco2)cc1` (stereo not drawn), in that order: 5.7 µM, 0.16 µM, 1.04 µM, 3.92 µM and 24.5.
With `CCOC(=O)c1ccc(N(C(=O)CCl)C(C(=O)NCCc2ccccc2)c2cc[nH]n2)cc1` (stereo not drawn), the IC50 is 15.2 µM in assay [1], 0.7 µM in assay [3], 4.47 µM in assay [2] and 4.3 µM in assay [4]. Further, the “Ratio IC50” value in assay [5] came to 6.1.
On to `CCOC(=O)c1ccc(CN(C(=O)CCl)C(C(=O)NCCc2ccccc2)c2c[nH]c3ccccc23)cc1` (stereo not drawn), for which the IC50 in assay [1] turned out to be 14.8 µM; in assay [3], 2.3 µM; in assay [2] it was 5.86 µM; in assay [4], 4.4 µM. The “Ratio IC50” value in assay [5] was determined as 1.91.
With `CCOC(=O)c1ccc(N(C(=O)CCl)C(C(=O)NCCc2cccc(Cl)c2)c2c[nH]c3ccccc23)cc1` (stereo not drawn), the half-inhibitory concentration (IC50) in assay [1] amounted to 9.26 µM; in assay [3], 0.37 µM; in assay [2], 1.99 µM; in assay [4], 4.5 µM. Also, in assay [5], the “Ratio IC50” value is recorded as 12.2.
Turning to `CCOC(=O)c1ccc(N(C(=O)CCl)C(C(=O)NCCc2ccccc2)c2ccnn2C)cc1` (stereo not drawn), the concentration for half-maximal inhibition (IC50) is 8.97 µM in assay [1], 2.1 µM in assay [3], 10.2 µM in assay [2] and 2.5 µM in assay [4]. The “Ratio IC50” value in assay [5] was determined as 1.2.
Turning to `Cc1noc(-c2ccc(N(C(=O)CCl)C(C(=O)NCCc3ccccc3)c3c[nH]c4ccccc34)cc2)n1` (stereo not drawn), the IC50 in assay [1] was found to be 13.2 µM; in assay [3] it was 0.33 µM; in assay [2], 1.94 µM; in assay [4], 4.21 µM. Further, the “Ratio IC50” value in assay [5] is given as 12.8.
For the molecule `COc1ccc(N(C(=O)CCl)C(C(=O)NCCc2ccccc2)c2cccs2)cc1Cl` (stereo not drawn), the IC50 in assay [1] amounted to 10.1 µM; in assay [3] it was 0.66 µM; in assay [2], 2.52 µM; in assay [4] it was 7.31 µM. Further, the “Ratio IC50” value in assay [5] was determined as 11.1.
For the molecule `COc1ccc(N(C(=O)CCl)C(C(=O)NCCc2ccccc2)c2c[nH]c3ccccc23)cc1` (stereo not drawn), the half-maximal inhibitory concentration (IC50) in assay [1] worked out at 15.3 µM; in assay [2], 9.72 µM.
Regarding `CCOC(=O)c1ccc(N(C(=O)CCl)C(C(=O)NCCc2cccc(C(F)(F)F)c2)c2c[nH]c3ccccc23)cc1` (stereo not drawn), the IC50 in assay [1] was 10.3 µM; in assay [3] it was 0.56 µM; in assay [2], 2.17 µM; in assay [4], 5.03 µM. Also, in assay [5], the “Ratio IC50” value stood at 9.
For `CCOC(=O)c1ccc(N(C(=O)CCl)C(C(=O)NCCc2ccccc2)c2csc3ccccc23)cc1` (stereo not drawn), in that order: 12.5 µM, 0.28 µM, 1.48 µM, 4.7 µM and 16.8.
Consider `N#Cc1ccc(N(C(=O)CCl)C(C(=O)NCCc2ccccc2)c2c[nH]c3ccccc23)cc1` (stereo not drawn), for which the IC50 in assay [1] was found to be 6.85 µM; in assay [3], 0.75 µM; in assay [2], 9.3 µM; in assay [4] it was 4.2 µM. In assay [5], the “Ratio IC50” value turned out to be 5.6.
For `O=C(NCCc1ccccc1)C(c1csc2ccccc12)N(C(=O)CCl)c1ccc(-c2nnco2)cc1` (stereo not drawn), in that order: 7.06 µM, 0.2 µM, 0.81 µM, 3.9 µM and 19.5.
As to `CCOC(=O)c1ccc(N(C(=O)CCl)C(C(=O)NCCc2cccc(OC)c2)c2c[nH]c3ccccc23)cc1` (stereo not drawn), the half-maximal inhibitory concentration (IC50) in assay [1] turned out to be 11.3 µM; in assay [3], 0.41 µM; in assay [2], 2.35 µM; in assay [4] it was 4.88 µM. Further, the “Ratio IC50” value in assay [5] is recorded as 11.9.
For `CCOC(=O)c1ccc(N(C(=O)CCl)C(C(=O)NCc2ccccc2)c2c[nH]c3ccccc23)cc1` (stereo not drawn), in that order: 11.9 µM, 1.1 µM, 4.92 µM, 6.4 µM and 5.8.
Take `CCOC(=O)c1ccc(N(C(=O)CCl)C(C(=O)NC2CCCCC2)c2c[nH]c3ccccc23)cc1` (stereo not drawn): the concentration for half-maximal inhibition (IC50) in assay [1] was 9.01 µM; in assay [3] it was 0.93 µM; in assay [2] it was 4.63 µM; in assay [4], 3.45 µM. Also, the “Ratio IC50” value in assay [5] was 3.7.

As a reminder, the IC50 is the midpoint of a concentration-inhibition curve. What is called inhibition is the change of the read-out against control, counted positive when it falls.
